According to US10016382B2, “Method for decreasing skeletal muscle damage and/or oxidative stress in mammals” (LONZA INC., priority 2014, dated 2018):
Several values for one entry are separate records, joined by “and”; a condition that tells them apart may be missing. Identical values can stand only once.

Legend:
[1] = system: Thiobarbituric acid reactive substances (TBARS); experiment: Serum TBARS (oxidative stress), Example 1; assay type: in vivo, dog; settings: for TBARS, serum, Mean / Change in TBARS, post-run minus pre-run: Ex.1, 250 mg/d; for Change in TBARS, post-run minus pre-run: following 15 mile long run at 13 wk, mean ± SEM
Description: Blood Analysis: Serum samples were taken at three different times from each dog during the 90 day period. The blood samples were collected as follows: 1.) just prior to scanning each dog for body composition at the beginning of the study, 2.) prior to the long run on the 13th week, and 3.) following the long run on the 13th week. The serum samples were analyzed for Phosphocreatine Kinase and Canine Myoglobin to determine the amount of muscle protein leakage that occurred following the long run and TBARS and Total Antioxidant Capacity (TAC) were determined to evaluate the antioxidant status of each of the test dogs during the exercise program. The final blood sample was taken 24 hr after the long run to obtain maximum protein leakage based on previous similar types of exercise research with human athletes. Biomarkers and Assay Methods: Blood was drawn from each dog using a serum separator tube at three different times during the 90 day period: 1.) just prior to scanning each dog for body composition at the beginning of the study, 2.) prior to the long run on the 13th week, and 3.) following the long run on the 13th week. The final blood sample was taken 24 hr after the long run to obtain maximum protein leakage based on previous similar types of exercise research with human athletes. Each time after the blood was drawn it was allowed to clot before being centrifuged for 15 min at 2000 g at 4° C. Serum was aliquoted into 1.5 mL microcentrifuge tubes and stored at −80° C. until assays were ran following the end of the study. Creatine kinase (CK) and canine myoglobin were measured to determine the amount of muscle protein leakage that occurred following the long run. Thiobarbituric acid reactive substances (TBARS) and total antioxidant capacity (TAC) were measured to evaluate the antioxidant status of each of the test dogs during the exercise program. Serum samples were analyzed for total antioxidant capacity (TAC) and thiobarbituric acid reactive substances (TBARS) using commercially available colorimetric kits supplied by Cayman Chemical Company (Ann Arbor, Mich.) per manufacturer instructions. Serum canine myoglobin levels were determined using a commercially available ELISA supplied by Innovate Research (Novi, Mich.) per manufacturer instructions. Creatine kinase activity was determined colorimetrically using a commercially available kit supplied by BioVision (San Francisco, Calif.).

skeletal protein = experiment: Fractional synthesis rate (FSR) of skeletal protein, 15N Phe infusion, Example 2 part two; assay type: in vivo, dog
Description: At the end of the 60 day training program, 24 of the dogs (12 resting and 12 running) were infused with a bolus dose of 15N Phe. […] Forty-five minutes after infusion, a 5 mm Bergstrom muscle biopsy needle was used to take a biopsy of the biceps femoris muscle. The muscle samples were quickly frozen in liquid nitrogen and placed in a -80° C. freezer for later analysis]. Twenty-four hours after the resting dogs were infused with 15N Phe, the remaining 12 dogs (6 non-carnitine; 3 male and 3 female and 6 L-carnitine; 3 male and 3 female) were run for a 15 mile endurance run. Following a 30 minute period of measured physiological recovery (heart rate and body temperature), test dogs that completed the 15 mile run were infused with a 2% 15N Phe solution as described above; muscle biopsies were taken 45 minutes after infusion. To process the samples, the acid-soluble fraction containing free amino acids was removed by addition of 2% (w/v) perchloric acid. After homogenization, samples were centrifuged at 3,000×g, and the supernatant, containing free amino acids, was removed. The protein precipitate was washed three times with 2% perchloric acid before being hydrolyzed in 6N HCL. The supernatant and precipitate, respectively, were then run through an ion-exchange column packed with Dowex 50WX8-200. Phenylalanine and 3-methylhistidine (3-MH) were eluted with 2 mL of 4N NH4OH and 1 mL of nanopure H2O into a new vial and then dried under vacuum. The tert-butyldimethylsilyl (tBDMS) derivative was formed by adding 800 μL of C2CH3CN-MTBSTFA (1:1) and incubating at 110° C. for 60 minutes. Analysis of the protein precipitate of muscle samples and free amino acids were carried out on an Agilent 7890A GC system attached to an Agilent 6975C mass spectrometer. Helium was used as the carrier gas at 1 mL/min. A 1 μL volume was injected into the GC/MS in splitless mode. Oven temperature began at 150° C. and increased by 50° C./min until reaching 200° C., after which the temperature was increased by 20° C./min until reaching 270° C. The temperature was held at 270° C. for 5.5 minutes. The mass spectrometer was operated under EI and SIM modes. The 394 and 395 m/z fragments, which represented the M and M+1 fragments of phenylalanine, were monitored.

SMILES: C[N+](C)(C)C[C@H](O)CC(=O)[O-] [L-carnitine]
- TBARS Least Sq Mean ([1]; Baseline): 12.53 μM MDA
- TBARS Least Sq Mean ([1]; Baseline, F): 14.1 μM MDA
- TBARS Least Sq Mean ([1]; Baseline, M): 10.96 μM MDA
- TBARS, serum, Mean ([1]; Baseline, both sexes): 12.37 uM MDA
- TBARS, serum, Mean ([1]; Baseline, females): 14.10 uM MDA
- TBARS, serum, Mean ([1]; Baseline, males): 10.96 uM MDA
- TBARS, serum, Mean ([1]; Post-run, both sexes): 12.59 uM MDA
- TBARS, serum, Mean ([1]; Post-run, females): 14.47 uM MDA
- TBARS, serum, Mean ([1]; Post-run, males): 11.06 uM MDA
- TBARS, serum, Mean ([1]; Pre-run, both sexes): 12.18 uM MDA
- TBARS, serum, Mean ([1]; Pre-run, females): 15.13 uM MDA
- TBARS, serum, Mean ([1]; Pre-run, males): 9.77 uM MDA
- Change in TBARS, post-run minus pre-run ([1]; both sexes): 0.41 μM MDA and 0.41 ± 0.71 n = 20 μM MDA
- Change in TBARS, post-run minus pre-run ([1]; females): −0.7 ± 1.1 n = 9 μM MDA
- Change in TBARS, post-run minus pre-run ([1]; males): 1.3 ± 0.9 n = 11 μM MDA
- TBARS Least Sq Mean ([1]; Post-run): 12.76 μM MDA
- TBARS Least Sq Mean ([1]; Post-run, F): 14.47 μM MDA
- TBARS Least Sq Mean ([1]; Post-run, M): 11.06 μM MDA
- TBARS Least Sq Mean ([1]; Pre-run): 12.45 μM MDA
- TBARS Least Sq Mean ([1]; Pre-run, F): 15.13 μM MDA
- TBARS Least Sq Mean ([1]; Pre-run, M): 9.77 μM MDA
- TBARS Least Sq Mean ([1]; Treatment * Sex, F): 14.1 μM MDA
- TBARS Least Sq Mean ([1]; Treatment * Sex, M): 10.96 μM MDA
- TBARS Least Sq Mean ([1]; Treatment level, all dogs): 12.53 μM MDA
- TBARS, mixed model Estimate, term Time[Post-run-Pre-run] * Treatment[L-carnitine] ([1]; serum, model term): −0.943
- TBARS, mixed model Estimate, term Time[Post-run-Pre-run] * Treatment[L-carnitine] * Sex[F] ([1]; serum, model term): −0.763
- TBARS, mixed model Estimate, term Time[Pre-run-Baseline] * Treatment[L-carnitine] ([1]; serum, model term): 0.8244
- TBARS, mixed model Estimate, term Time[Pre-run-Baseline] * Treatment[L-carnitine] * Sex[F] ([1]; serum, model term): 0.2021
- TBARS, mixed model Estimate, term Treatment[L-carnitine] ([1]; serum, model term): −0.5222
- TBARS, mixed model Estimate, term Treatment[L-carnitine] * Sex[F] ([1]; serum, model term): 0.4031
- % FSR of skeletal protein vs control (skeletal protein; Ex.2 part two, 250 mg/d, male or female dogs): did not increase
- FSR (skeletal protein; Female, no run): 5.04%
- FSR (skeletal protein; Female, run): 2.54%
- FSR (skeletal protein; Male, no run): 3.61%
- FSR (skeletal protein; Male, run): 4.63%
